Reference: patent US20250275948A1, “(N-[4-(2,3-DIHYDRO-1H-INDEN-5-YL)-1,3-THIAZOL-2-YL]-2-[4-METHYL-4-(NAPHTHALEN-2-YL)-2,5-DIOXOIMIDAZOLIDIN-1-YL]ACETAMIDE AS STABILIZER OF CLOCK:BMAL1 INTERACTION FOR THE TREATMENT OF CIRCADIAN RHYTHM DISEASES AND DISORDERS” (KOC UNIVERSITESI, priority 2022, published 2025)

Experiments:
CLOCK and BMAL1 [1] = assay: Effect on core clock protein levels (western blot), U2OS Bmal1-dLuc cells; format: cell-based, human; conditions: unsynchronized U2OS Bmal1:dLuc cells, 24 hours
Method: The effect of CLK95 on core-clock proteins was assessed both on synchronized and unsynchronized U2OS Bmal1-dLuc cells. Cells were seeded into 6 well-plates with a density of 45×10^4 cell/well and incubated at 37° C. under 5% CO2 for 16 hours. For unsynchronized cells, they were treated with appropriate amounts CLK95 (final 0.25% DMSO) and further incubated for 24 hours. For synchronized cells, cell media was exchanged with 0.1 μM Dexamethasone containing DMEM. After synchronization, cells were subjected to the CLK95 (final 0.25% DMSO). After 24 hours of incubation, cells were harvested with 6 hours intervals for 7 time points (24H-60H). Then harvested cells were lysed with 90 μL RIPA buffer (50 mM Tris-HCl pH 7.4, 150 mM NaCl, 1% Triton x-100, 0.1% SDS, 1×PIC) and left for an incubation on ice for 30 minutes. Following, samples were centrifugated at 15000×g for 20 minutes at 4° C. After boiling samples with Laemmli buffer for 7 minutes at 95° C., 10 μg of protein was loaded for each sample to 10% SDS-polyacrylamide gel. For Western blot analysis following antibodies used to determine the level of core clock proteins: anti-CLOCK (Bethyl, A302-618A), anti-BMAL1 (Santa Cruz Biotech., SC-365645), anti-PER2 (Proteintech, 67513-1-Ig), anti-CRY1 (Bethyl, A302-614A), and anti-β-Actin (Cell Signaling, 8H10D10) antibodies.

CLOCK and BMAL1 [2] = molecular target: T1, CLOCK and BMAL1 (Mus musculus, UniProt O08785+Q9WTL8); assay: Subcellular fractionation from mice liver; parameters: species or system mice (C57BL/6J); conditions: in vivo and in vitro
T1 construct: from tissue; host or cells: liver of C57BL/6J mice
Method: 8-12 weeks old male C57BL/6J mice were used for in vivo studies. Mice weighing 24-28 grams were subjected to a single dose of CLK95 (50 mg/kg) or vehicle (DMSO:Cremophor EL: 0.9% NaCl; 2.5:15:82.5, v/v/v) intraperitoneally. Animals which were obtained from Koç University Animal Research Facility were fed ad libitum. Four hours after treatment, animals were sacrificed, and the internal organs were harvested.
Subcellular fractionation from mice liver was performed by using 10 mg tissue sample. Buffers that were used in this process are same as in given in section 3.13. First, the tissue was washed in 500 μL ice-cold 1×PBS buffer and then resuspended in 300 μL cytosolic lysis buffer by pipetting and incubated on ice for 10 min. Samples were centrifuged at 660×g for 5 minutes (4° C.) to get rid of cell debris. While supernatants were collected and transferred to new microcentrifuge tubes for processing later to give cytosolic fractions, pellets containing intact nucleus were washed 3 times with 300 μL cytosolic lysis buffer. At the end of each wash, suspensions were centrifugated for 5 minutes at 660×g (4° C.). […] Samples were analysed with Western blot as described earlier using anti-CLOCK (Bethyl, A302-618A), anti-BMAL1 (Santa Cruz Biotech., SC-365645), anti-CRY1 (Bethyl, A302-614A), anti-Histone H3 (Abcam, ab1791), and anti-αTUBULIN (Sigma-Aldrich, T9026) antibodies were used.

CLOCK:BMAL1 interaction = assay: Co-immunoprecipitation (Co-IP) of CLOCK with FLAG-BMAL1; format: biochemical
Method: To investigate the binding sites of the CLK95 on CLOCK and BMAL1, promising residues which were computationally determined to interact with small molecule were mutated via site-directed mutagenesis. […] These amino acid residues were introduced to Bmal1 and CLOCK genes by PCR based mutagenesis. FLAG-tagged pcDNA4a-Bmal1 and […] were used as template DNAs. Each PCR reaction consisted of 50 ng of template DNA, 0.2 μM primer pair, 0.2 mM dNTPs and 3 units of Pfu DNA polymerase. Then the PCR reaction was performed under these conditions: 5 minutes at 98° C. followed by 12 cycles of 1 minute at 98° C., 1 minute at 55° C. and 15 minutes at 72° C. The PCR reaction completed with a final extension step at 72° C. for 15 minutes. PCR products were analysed with 0.8% of agarose. Bands at the right size were further treated with 1 μL FastDigest Dpn I (Thermo Scientific, FD1704) for 1 hour at 37° C. to digest methylated-parental DNA. Subsequently, DH5a (a strain of E. coli) cells were transformed with the 7 μL PCR product. Standard heat-shock transformation protocol was used. Transformed cells were plated on Ampicillin (100 μg/mL) containing Luria-Bertani (LB) agar plates and incubated overnight at 37° C. Later, colonies formed on the LB ager plate were selected to culture in 5 mL LB broth containing Ampicillin (100 μg/mL). After overnight incubation at 37° C., cells were harvested and plasmid isolation was performed with Macherey Nagel's NucleoSpin Plasmid (NoLid), Mini kit. Isolated plasmids were then sent for Sanger sequencing (Macrogen) to confirm desired single-site mutation.
To assess the effect CLK95 on BMAL1-CLOCK interaction Co-IP was employed. HEK 293T cell were transfected with FLAG-tagged pcDNA4a-Bmal1 or pCMV-Sport6-CLOCK plasmids. The FLAG-tagged pcDNA4a-Bmal1-R126A and pCMV-Sport6-CLOCK-F80A-K220A mutants were used in this assay. […] The protein concentration of each lysate was determined with the Pierce™ 660 nm Protein assay (Thermo Scientific, 22660). […]

residue needed for binding to CLOCK:BMAL1 complex (CLOCK:BMAL1 interaction; R126A mutant Co-IP): Arg126 of BMAL1 is essential
SMILES: CC1(c2ccc3ccccc3c2)NC(=O)N(CC(=O)Nc2nc(-c3ccc4c(c3)CCC4)cs2)C1=O (centres unmarked) [CLK95]
CLOCK and BMAL1 protein levels (CLOCK and BMAL1 [1]): increased
translocation of CLOCK and BMAL1 into the nucleus (CLOCK and BMAL1 [2]): interfering with the translocation of CLOCK and BMAL1 into the nucleus both in vivo and in vitro
stability of CLOCK-BMAL1 (CLOCK:BMAL1 interaction): increasing the stability of CLOCK-BMAL1
interaction between CLOCK and BMAL1 (CLOCK:BMAL1 interaction; Co-IP, HEK 293T lysates): increasing the interaction between CLOCK and BMAL1
